In the test the target is human GluN1/GluN2B NMDA receptors (Homo sapiens, UniProt Q05586+Q13224). The test is described as follows: Cell-based calcium flux (FLIPR) assay on cloned human NR1/NR2B ion channels expressed in mammalian cells. Conditions: standard assay; glutamate at ~EC80; FLIPR calcium flux. Summed up: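 Calcium influx followed by FLIPR fluorescence after 5 min compound exposure and a further 5 min co-agonist challenge: 10 μM glycine with glutamate at ~EC80 (standard) or EC40 (HTS).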
Chain of human GluN1/GluN2B NMDA receptors (Q13224 27-1484, other chains not shown): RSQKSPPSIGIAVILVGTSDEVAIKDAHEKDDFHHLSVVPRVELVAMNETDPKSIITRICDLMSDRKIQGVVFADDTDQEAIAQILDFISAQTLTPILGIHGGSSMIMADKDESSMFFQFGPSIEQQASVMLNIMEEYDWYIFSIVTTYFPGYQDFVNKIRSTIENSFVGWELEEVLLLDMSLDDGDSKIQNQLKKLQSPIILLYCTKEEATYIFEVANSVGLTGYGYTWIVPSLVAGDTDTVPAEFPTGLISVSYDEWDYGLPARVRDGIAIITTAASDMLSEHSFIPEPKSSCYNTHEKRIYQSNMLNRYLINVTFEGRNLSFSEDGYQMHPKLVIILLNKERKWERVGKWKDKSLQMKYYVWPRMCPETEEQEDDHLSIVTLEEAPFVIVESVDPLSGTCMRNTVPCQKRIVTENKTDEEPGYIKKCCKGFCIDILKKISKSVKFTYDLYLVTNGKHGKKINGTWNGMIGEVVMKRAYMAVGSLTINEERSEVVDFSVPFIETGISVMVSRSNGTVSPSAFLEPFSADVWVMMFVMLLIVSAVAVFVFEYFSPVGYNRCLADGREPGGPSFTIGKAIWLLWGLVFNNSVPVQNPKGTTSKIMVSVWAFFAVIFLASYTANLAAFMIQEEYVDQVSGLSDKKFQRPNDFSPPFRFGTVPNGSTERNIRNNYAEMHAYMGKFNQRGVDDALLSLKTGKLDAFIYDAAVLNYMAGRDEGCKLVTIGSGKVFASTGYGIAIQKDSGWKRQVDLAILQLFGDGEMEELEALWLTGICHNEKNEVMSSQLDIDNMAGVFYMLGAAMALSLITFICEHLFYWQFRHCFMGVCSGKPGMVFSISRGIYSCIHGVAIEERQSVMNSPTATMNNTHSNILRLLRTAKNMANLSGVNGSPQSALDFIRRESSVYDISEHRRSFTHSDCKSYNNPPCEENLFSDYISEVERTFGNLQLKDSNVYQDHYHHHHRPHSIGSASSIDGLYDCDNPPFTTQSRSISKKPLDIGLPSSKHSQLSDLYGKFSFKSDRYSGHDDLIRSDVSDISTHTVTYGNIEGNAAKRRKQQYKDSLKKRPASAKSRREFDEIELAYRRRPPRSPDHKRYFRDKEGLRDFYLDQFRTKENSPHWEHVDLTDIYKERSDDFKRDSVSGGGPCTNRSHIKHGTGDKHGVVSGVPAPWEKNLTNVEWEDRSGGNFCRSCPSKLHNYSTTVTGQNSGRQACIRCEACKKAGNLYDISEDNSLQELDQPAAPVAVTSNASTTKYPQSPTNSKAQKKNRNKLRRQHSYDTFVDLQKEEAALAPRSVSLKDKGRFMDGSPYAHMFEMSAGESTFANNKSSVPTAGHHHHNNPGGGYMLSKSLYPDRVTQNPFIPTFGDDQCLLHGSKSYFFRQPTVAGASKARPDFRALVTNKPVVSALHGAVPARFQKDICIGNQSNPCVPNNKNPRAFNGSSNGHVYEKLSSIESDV

As for `CCOc1cnc(OCc2cn(-c3ccc(F)c(C(F)(F)F)c3)nn2)nc1` [Example 443, 5-Ethoxy-2-[[1-[4-fluoro-3-(trifluoromethyl)phenyl]triazol-4-yl]methoxy]pyrimidine], the 50% inhibitory concentration (IC50) is 0.004 µM.
In the case of `Cc1nc(OCc2cn(-c3ccc(F)c(C(F)(F)F)c3)nn2)ncc1Cl` [Example 444, 5-Chloro-2-[[1-[4-fluoro-3-(trifluoromethyl)phenyl]triazol-4-yl]methoxy]-4-methyl-pyrimidine], the 50% inhibitory concentration (IC50) is 0.013 µM.
For the compound `Cc1nc(OCc2cn(-c3ccc(F)c(C(F)(F)F)c3)nn2)ncc1F` [Example 445, 5-Fluoro-2-[[1-[4-fluoro-3-(trifluoromethyl)phenyl]triazol-4-yl]methoxy]-4-methyl-pyrimidine], the IC50 was 0.006 µM.
The figure for `CC(=O)c1cnc(OCc2cn(-c3ccc(F)c(C(F)(F)F)c3)nn2)nc1` [Example 447, 1-[2-[[1-[4-Fluoro-3-(trifluoromethyl)phenyl]triazol-4-yl]methoxy]pyrimidin-5-yl]ethanone] is 0.014 µM; for `CNc1ccnc(OCc2cn(-c3ccc(F)c(C(F)(F)F)c3)nn2)n1` [Example 449, 2-[[1-[4-Fluoro-3-(trifluoromethyl)phenyl]triazol-4-yl]methoxy]-N-methyl-pyrimidin-4-amine] it is 0.034 µM; for `CN(C)c1ccnc(OCc2cn(-c3ccc(F)c(C(F)(F)F)c3)nn2)n1` [Example 450, 2-[[1-[4-Fluoro-3-(trifluoromethyl)phenyl]triazol-4-yl]methoxy]-N,N-dimethyl-pyrimidin-4-amine] it is 0.03 µM.
Take `CNc1nc(OCc2cn(-c3ccc(F)c(C(F)(F)F)c3)nn2)ncc1F` [Example 451, 5-Fluoro-2-[[1-[4-fluoro-3-(trifluoromethyl)phenyl]triazol-4-yl]methoxy]-N-methyl-pyrimidin-4-amine]: the IC50 came out at 0.298 µM.
On to `CNC(=O)c1cnc(OCc2cn(-c3ccc(F)c(C(F)(F)F)c3)nn2)nc1` [Example 452, 2-[[1-[4-Fluoro-3-(trifluoromethyl)phenyl]triazol-4-yl]methoxy]-N-methyl-pyrimidine-5-carboxamide], for which the IC50 was found to be 0.218 µM.
Consider `Fc1ccc(-n2cc(COc3ncc(C4CC4)cn3)nn2)cc1C(F)(F)F` [Example 453, 5-Cyclopropyl-2-[[1-[4-fluoro-3-(trifluoromethyl)phenyl]triazol-4-yl]methoxy]pyrimidine], for which the IC50 came out at 0.022 µM.
Turning to `Fc1ccc(-n2cc(COc3ncc(Br)cn3)nn2)cc1C(F)(F)F` [Example 454, 5-Bromo-2-((1-(4-fluoro-3-(trifluoromethyl)phenyl)-1H-1,2,3-triazol-4-yl)methoxy)pyrimidine], the IC50 was 0.013 µM.
The figure for `Fc1ccc(-n2cc(COc3ncc(N4CC(F)C4)cn3)nn2)cc1C(F)(F)F` [Example 455, 2-((1-(4-Fluoro-3-(trifluoromethyl)phenyl)-1H-1,2,3-triazol-4-yl)methoxy)-5-(3-fluoroazetidin-1-yl)pyrimidine] is 0.034 µM.
The figure for `Fc1ccc(-n2cc(COc3ncc(N4CCOCC4)cn3)nn2)cc1C(F)(F)F` [Example 456, 4-(2-((1-(4-Fluoro-3-(trifluoromethyl)phenyl)-1H-1,2,3-triazol-4-yl)methoxy)pyrimidin-5-yl)morpholine] is 0.5 µM.
Turning to `Cc1nc(OCc2cn(-c3ccc(F)c(C(F)(F)F)c3)nn2)ncc1N1CCC1` [Example 457, 5-(Azetidin-1-yl)-2-((1-(3-(trifluoromethyl)-4-fluorophenyl)-1H-1,2,3-triazol-4-yl)methoxy)-4-methylpyrimidine], the IC50 is 0.296 µM.
In the case of `CCNc1cnc(OCc2cn(-c3ccc(F)c(C(F)(F)F)c3)nn2)nc1C` [Example 458, 2-((1-(3-(Trifluoromethyl)-4-fluorophenyl)-1H-1,2,3-triazol-4-yl)methoxy)-N-ethyl-4-methylpyrimidin-5-amine] it was 0.439 µM.
In the case of `CCNc1cnc(OCc2cn(-c3ccc(F)c(C(F)(F)F)c3)nn2)nc1` [Example 459, 2-((1-(3-(Trifluoromethyl)-4-fluorophenyl)-1H-1,2,3-triazol-4-yl)methoxy)-N-ethylpyrimidin-5-amine], the concentration for half-maximal inhibition (IC50) was 0.126 µM.
Take `COC1CN(c2cnc(OCc3cn(-c4ccc(F)c(C(F)(F)F)c4)nn3)nc2)C1` [Example 460, 2-((1-(3-(Trifluoromethyl)-4-fluorophenyl)-1H-1,2,3-triazol-4-yl)methoxy)-5-(3-methoxyazetidin-1-yl)pyrimidine]: the concentration for half-maximal inhibition (IC50) stood at 0.726 µM.
Consider `Fc1c(-n2cc(COc3ncc(Cl)cn3)nn2)cccc1C(F)(F)F` [Example 461, 5-Chloro-2-[[1-[2-fluoro-3-(trifluoromethyl)phenyl]triazol-4-yl]methoxy]pyrimidine], for which the concentration for half-maximal inhibition (IC50) was 0.07 µM.
In the case of `Cc1cc(OCc2cn(-c3ccc(F)c(C)c3)nn2)ncn1` [Example 462, 4-[[1-(4-Fluoro-3-methyl-phenyl)triazol-4-yl]methoxy]-6-methyl-pyrimidine] it was 3.03 µM.
The figure for `Cc1c(F)cccc1-n1cc(COc2ncc(Cl)cn2)nn1` [Example 463, 5-Chloro-2-[[1-(3-fluoro-2-methyl-phenyl)triazol-4-yl]methoxy]pyrimidine] is 0.647 µM; for `Cc1cnc(OCc2cn(-c3cccc(F)c3C)nn2)nc1` [Example 464, 2-[[1-(3-Fluoro-2-methyl-phenyl)triazol-4-yl]methoxy]-5-methyl-pyrimidine] it is 0.515 µM.
In the case of `Cc1nc(OCc2cn(-c3cccc(F)c3C)nn2)ncc1F` [Example 465, 5-Fluoro-2-[[1-(3-fluoro-2-methyl-phenyl)triazol-4-yl]methoxy]-4-methyl-pyrimidine] it was 3.72 µM; in that of `Cc1c(F)cccc1-n1cc(COc2ncc(C(C)(C)O)cn2)nn1` [Example 466, 2-[2-[[1-(3-Fluoro-2-methyl-phenyl)triazol-4-yl]methoxy]pyrimidin-5-yl]propan-2-ol], 7.01 µM.
With `Cc1cnc(OCc2cn(-c3cccc(C)c3F)nn2)nc1` [Example 467, 2-[[1-(2-Fluoro-3-methyl-phenyl)triazol-4-yl]methoxy]-5-methyl-pyrimidine], the IC50 came out at 0.711 µM.
Regarding `Cc1cccc(-n2cc(COc3ncc(Cl)cn3)nn2)c1F` [Example 468, 5-Chloro-2-[[1-(2-fluoro-3-methyl-phenyl)triazol-4-yl]methoxy]pyrimidine], the half-maximal inhibitory concentration (IC50) is 1.25 µM.
In the case of `Cc1cccc(-n2cc(COc3ncc(C(F)(F)F)cn3)nn2)c1F` [Example 469, 2-[[1-(2-Fluoro-3-methyl-phenyl)triazol-4-yl]methoxy]-5-(trifluoromethyl)pyrimidine] it was 1.06 µM; in that of `Cc1cccc(-n2cc(COc3ncc(Cl)c(C)n3)nn2)c1F` [Example 470, 5-Chloro-2-[[1-(2-fluoro-3-methyl-phenyl)triazol-4-yl]methoxy]-4-methyl-pyrimidine], 0.659 µM.
Consider `Cc1cccc(-n2cc(COc3ncc(OC(F)F)cn3)nn2)c1F` [Example 471, 5-(Difluoromethoxy)-2-[[1-(2-fluoro-3-methyl-phenyl)triazol-4-yl]methoxy]pyrimidine], for which the IC50 is 1.73 µM.
In the case of `Cc1cc(-n2cc(COc3nccc(N)n3)nn2)ccc1F` [Example 472, 2-[[1-(4-Fluoro-3-methyl-phenyl)triazol-4-yl]methoxy]pyrimidin-4-amine] it was 0.149 µM.
In the case of `Cc1cc(-n2cc(COc3ncccn3)nn2)ccc1F` [Example 473, 2-[[1-(4-Fluoro-3-methyl-phenyl)triazol-4-yl]methoxy]pyrimidine], the IC50 is 0.072 µM.
`Cc1cc(-n2cc(COc3ncc(F)cn3)nn2)ccc1F` [Example 474, 5-Fluoro-2-[[1-(4-fluoro-3-methyl-phenyl)triazol-4-yl]methoxy]pyrimidine]: the IC50 turned out to be 0.022 µM.
On to `COCc1ccnc(OCc2cn(-c3ccc(F)c(C)c3)nn2)n1` [Example 479, 2-[[1-(4-Fluoro-3-methyl-phenyl)triazol-4-yl]methoxy]-4-(methoxymethyl)pyrimidine], for which the IC50 turned out to be 0.036 µM.
With `Cc1cc(-n2cc(COc3ncc(F)c(C)n3)nn2)ccc1F` [Example 481, 5-Fluoro-2-[[1-(4-fluoro-3-methyl-phenyl)triazol-4-yl]methoxy]-4-methyl-pyrimidine], the half-inhibitory concentration (IC50) came to 0.002 µM.
Consider `Cc1cc(-n2cc(COc3ncc(OCCF)cn3)nn2)ccc1F` [Example 483, 5-(2-Fluoroethoxy)-2-[[1-(4-fluoro-3-methyl-phenyl)triazol-4-yl]methoxy]pyrimidine], for which the IC50 is 0.007 µM.
The figure for `Cc1cnc(OCc2cn(-c3cc(C)ccc3F)nn2)nc1` [Example 484, 2-[[1-(2-Fluoro-5-methyl-phenyl)triazol-4-yl]methoxy]-5-methyl-pyrimidine] is 1 µM; for `Cc1ccc(F)c(-n2cc(COc3ncc(Cl)c(C)n3)nn2)c1` [Example 485, 5-Chloro-2-[[1-(2-fluoro-5-methyl-phenyl)triazol-4-yl]methoxy]-4-methyl-pyrimidine] it is 1.01 µM.
In the case of `Cc1ccc(F)c(-n2cc(COc3ncc(F)c(C)n3)nn2)c1` [Example 486, 5-Fluoro-2-[[1-(2-fluoro-5-methyl-phenyl)triazol-4-yl]methoxy]-4-methyl-pyrimidine] it was > 2.99 µM; in that of `Cc1cc(F)ccc1-n1cc(COc2ncc(F)cn2)nn1` [Example 487, 5-Fluoro-2-[[1-(4-fluoro-2-methyl-phenyl)triazol-4-yl]methoxy]pyrimidine], 16.2 µM; in that of `COc1cnc(OCc2cn(-c3ccc(F)cc3C)nn2)nc1` [Example 488, 2-[[1-(4-Fluoro-2-methyl-phenyl)triazol-4-yl]methoxy]-5-methoxy-pyrimidine], 2.65 µM.
The figure for `Cc1cc(F)ccc1-n1cc(COc2ncc(Cl)cn2)nn1` [Example 489, 5-Chloro-2-[[1-(4-fluoro-2-methyl-phenyl)triazol-4-yl]methoxy]pyrimidine] is 4.42 µM; for `Cc1cnc(OCc2cn(-c3ccc(F)cc3C)nn2)nc1` [Example 490, 2-[[1-(4-Fluoro-2-methyl-phenyl)triazol-4-yl]methoxy]-5-methyl-pyrimidine] it is 2.44 µM.

(Values after patent US10233173B2, “Substituted 1,2,3-triazoles as NR2B-selective NMDA modulators” (JANSSEN PHARMACEUTICA NV, priority 2016, dated 2019).)
